In US8269026B2, “Lupane derivatives useful for treating HIV” (priority 2008, dated 2012):

system: HIV-1 (HIVIIIB) replication in MT2 cell line; assay: HIV-1 replication in MT2 cell line with and without 30% human serum (viral RT activity in supernatant); format: cell-based; conditions: Human immunodeficiency virus 1, MT2 cells, with 30% human serum, average IC50 if tested more than once, read-out: MT2 (HIVIIIB) with HS 30% IC50 range
Experimental: HIV-1 Replication in MT2 cell line with and without 30% human serum: The cells are infected at a Multiciplicity of Infection (MOI) of 0.5 for 3 h and then washed twice with complete media to remove residual virus. Cells are then resuspended at 0.5×10^6/ml in complete medium (RPMI, 10% FBS, 1% sodium pyruvate), and seeded into 96-well plates (6.25×10^4/well). The cells are cultured in the presence or absence of various concentrations of test compounds in serial dilutions for 3 days at 37° C. The test compounds are serially diluted in complete medium supplemented or not with 30% human serum. After 3 days, 100 μL of cultured medium with cells are replaced with 120 μL of freshly diluted test compounds in complete medium containing or not 30% Human serum. The level of HIV-1 replication is determined at days 5 after infection by the presence of viral RT activity in harvested supernatant fluid. The IC50 and IC90 values for the virus replication are determined by using GRAPHPAD PRISM software.
The IC50 of the compounds tested in accordance with the HIV replication activity assay MT2 (HIVIIIB) are represented in Table 1.

Q: For `CC(C)C1=C2[C@H]3CC[C@@H]4[C@@]5(C)CC[C@H](OC(=O)CC(C)(C)C(=O)O)C(C)(C)C5CC[C@@]4(C)[C@]3(C)CC[C@@]2(NC(=O)Nc2cnn(C)c2)CC1=O` (stereo partly drawn) [17-37, 3β-O-(3′,3′-Dimethylsuccinyl)-17β-[N′-(1-methyl-1H-pyrazol-4-yl)ureido]-21-oxolup-18-ene], which IC50 is on record?
A: Its IC50 is under 0.199 µM.

Q: How did the IC50 turn out when `CC(C)C1=C2C3CCC4[C@@]5(C)CC[C@H](OC(=O)CC(C)(C)C(=O)O)C(C)(C)C5CC[C@@]4(C)[C@]3(C)CC[C@@]2(NC(=O)N(C)C)CC1=O` (stereo partly drawn) [17-48, 3β-O-(3′,3′-Dimethylsuccinyl)-17β-[N′,N′-dimethyl-ureido]-21-oxolup-18-ene] was run?
A: Its IC50 is under 0.199 µM.

Q: With `CC(C)C1=C2[C@H]3CC[C@@H]4[C@@]5(C)CC[C@H](OC(=O)CC(C)(C)C(=O)O)C(C)(C)[C@@H]5CC[C@@]4(C)[C@]3(C)CC[C@@]2(NC(=O)C2CCN(C)CC2)CC1=O` [19-36, 3β-O-(3′,3′-Dimethylsuccinyl)-17β-(1-methylpiperidine-4-amido)-21-oxolup-18-ene] as the compound, how does the IC50 read?
A: Its IC50 is under 0.199 µM.

Q: How did the IC50 turn out when `CC(C)C1=C2C3CCC4[C@@]5(C)CC[C@H](OC(=O)CC(C)(C)C(=O)O)C(C)(C)C5CC[C@@]4(C)[C@]3(C)CC[C@@]2(NC(=O)Cn2ccnc2)CC1=O` (stereo partly drawn) [19-60, 3β-O-(3′,3′-Dimethylsuccinyl)-17β-(1-imidazole-acetamido)-21-oxolup-18-ene] was run?
A: The IC50 was under 0.199 µM.

Q: For `CC(C)C1=C2C3CCC4[C@@]5(C)CC[C@H](OC(=O)CC(C)(C)C(=O)O)C(C)(C)C5CC[C@@]4(C)[C@]3(C)CC[C@@]2(NC(=O)OCc2ccccc2)CC1=O` (stereo partly drawn) [20-8, 3β-O-(3′,3′-Dimethylsuccinyl)-17β-benzyloxycarbonylamino-21-oxolup-18-ene], which IC50 is on record?
A: Its IC50 is under 0.199 µM.

Q: For `CC(C)C1=C2C3CCC4[C@@]5(C)CC[C@H](OC(=O)CC(C)(C)C(=O)O)C(C)(C)C5CC[C@@]4(C)[C@]3(C)CC[C@@]2(NC(=O)N2CC[C@@H](N)C2)CC1=O` (stereo partly drawn) [17-42, 3β-O-(3′,3′-Dimethylsuccinyl)-17β-[((R)-3-amino-pyrrolidine-1-carbonyl)-amino]-21-oxolup-18-ene], which IC50 is on record?
A: Its IC50 is 0.2 to 0.999 µM.

Q: Which IC50 does the source give for `CC(C)C1=C2C3CCC4[C@@]5(C)CC[C@H](OC(=O)CC(C)(C)C(=O)O)C(C)(C)C5CC[C@@]4(C)[C@]3(C)CC[C@@]2(NC(=O)OC[C@@H]2CCCN2C)CC1=O` (stereo partly drawn) [20-20, 3β-O-(3′,3′-Dimethylsuccinyl)-17β-((S)1-methylpyrrolidine-2-methoxycarbonylamino)-21-oxolup-18-ene] here?
A: The IC50 was under 0.199 µM.

Q: `CC(C)C1=C2[C@H]3CC[C@@H]4[C@@]5(C)CC[C@H](OC(=O)CC(C)(C)C(=O)O)C(C)(C)[C@@H]5CC[C@@]4(C)[C@]3(C)CC[C@@]2(NC(=O)C2CCN(C(=O)OC(C)(C)C)CC2)CC1=O` [19-5, 3β-O-(3′,3′-Dimethylsuccinyl)-17β-(1-tert-butyloxycarbonylpiperidine-4-amido)-21-oxolup-18-ene] was tested. Which IC50 did it give?
A: Its IC50 is under 0.199 µM.

Q: `CC(C)C1=C2[C@H]3CC[C@@H]4[C@@]5(C)CC[C@H](OC(=O)CC(C)(C)C(=O)O)C(C)(C)[C@@H]5CC[C@@]4(C)[C@]3(C)CC[C@@]2(NC(=O)NCc2nccn2C)CC1=O` [17-73, 3β-O-(3′,3′-Dimethylsuccinyl)-17β-[N′-(1-methyl-1H-imidazol-2-yl-methyl)-ureido]-21-oxolup-18-ene] was tested. Which IC50 did it give?
A: The IC50 was under 0.199 µM.

Q: How did the IC50 turn out when `CC(C)C1=C2C3CCC4[C@@]5(C)CC[C@H](OC(=O)CC(C)(C)C(=O)O)C(C)(C)C5CC[C@@]4(C)[C@]3(C)CC[C@@]2(NC(=O)OC2CCNCC2)CC1=O` (stereo partly drawn) [20-16, 3β-O-(3′,3′-Dimethylsuccinyl)-17β-(piperidine-4-oxycarbonylamino)-21-oxolup-18-ene] was run?
A: The IC50 was under 0.199 µM.

Q: Which IC50 does the source give for `CC(C)C1=C2[C@H]3CC[C@@H]4[C@@]5(C)CC[C@H](OC(=O)CC(C)(C)C(=O)O)C(C)(C)[C@@H]5CC[C@@]4(C)[C@]3(C)CC[C@@]2(NC(=O)N2CCNCC2)CC1=O` [17-15, 3β-O-(3′,3′-Dimethylsuccinyl)-17β-[(piperazine-1-carbonyl)-amino]-21-oxolup-18-ene] here?
A: The IC50 was under 0.199 µM.

Q: `Cc1nnc(NC(=O)N[C@@]23CC[C@]4(C)C(CCC5[C@@]6(C)CC[C@H](OC(=O)CC(C)(C)C(=O)O)C(C)(C)C6CC[C@]54C)C2=C(C(C)C)C(=O)C3)o1` (stereo partly drawn) [17-19, 3β-O-(3′,3′-Dimethylsuccinyl)-17β-(N′-5-methyl-[1,3,4]oxadiazol-2-yl-ureido)-21-oxolup-18-ene] was tested. Which IC50 did it give?
A: The IC50 was under 0.199 µM.

Q: `CC(C)C1=C2C3CCC4[C@@]5(C)CC[C@H](OC(=O)CC(C)(C)C(=O)O)C(C)(C)C5CC[C@@]4(C)[C@]3(C)CC[C@@]2(NC(=O)N2CC[C@@H](NC(=O)OC(C)(C)C)C2)CC1=O` (stereo partly drawn) [17-40, 3β-O-(3′,3′-Dimethylsuccinyl)-17β-[((R)-3-tert-butyloxycarbonylamino-pyrrolidine-1-carbonyl)-amino]-21-oxolup-18-ene] was tested. Which IC50 did it give?
A: The IC50 was under 0.199 µM.

Q: With `CC(C)C1=C2C3CCC4[C@@]5(C)CC[C@H](OC(=O)CC(C)(C)C(=O)O)C(C)(C)C5CC[C@@]4(C)[C@]3(C)CC[C@@]2(NC(=O)OC2CCSCC2)CC1=O` (stereo partly drawn) [20-14, 3β-O-(3′,3′-Dimethylsuccinyl)-17β-(tetrahydro-thiopyran-4-oxycarbonylamino)-21-oxolup-18-ene] as the compound, how does the IC50 read?
A: The IC50 was under 0.199 µM.

Q: `CC(=O)N1CCN(C(=O)N[C@@]23CC[C@]4(C)[C@H](CC[C@@H]5[C@@]6(C)CC[C@H](OC(=O)CC(C)(C)C(=O)O)C(C)(C)[C@@H]6CC[C@]54C)C2=C(C(C)C)C(=O)C3)CC1` [17-17, 3β-O-(3′,3′-Dimethylsuccinyl)-17β-[(4-acetyl-piperazine-1-carbonyl)-amino]-21-oxolup-18-ene] was tested. Which IC50 did it give?
A: Its IC50 is under 0.199 µM.

Q: `Cc1nnc(CNC(=O)N[C@@]23CC[C@]4(C)C(CCC5[C@@]6(C)CC[C@H](OC(=O)CC(C)(C)C(=O)O)C(C)(C)C6CC[C@]54C)C2=C(C(C)C)C(=O)C3)o1` (stereo partly drawn) [17-65, 3β-O-(3′,3′-Dimethylsuccinyl)-17β-[N′-(2-methyl-[1,3,4]oxadiazol-2-ylmethyl)-ureido]-21-oxolup-18-ene] was tested. Which IC50 did it give?
A: The IC50 was under 0.199 µM.

Q: With `CC(C)C1=C2C3CCC4[C@@]5(C)CC[C@H](OC(=O)CC(C)(C)C(=O)O)C(C)(C)C5CC[C@@]4(C)[C@]3(C)CC[C@@]2(NC(=O)OCCC2CC2)CC1=O` (stereo partly drawn) [20-22, 3β-O-(3′,3′-Dimethylsuccinyl)-17β-(2-cyclopropyl-1-ethoxycarbonylamino)-21-oxolup-18-ene] as the compound, how does the IC50 read?
A: The IC50 was under 0.199 µM.

Q: With `CC(C)C1=C2C3CCC4[C@@]5(C)CC[C@H](OC(=O)CC(C)(C)C(=O)O)C(C)(C)C5CC[C@@]4(C)[C@]3(C)CC[C@@]2(NC(=O)NC2(c3ccccn3)CC2)CC1=O` (stereo partly drawn) [17-69, 3β-O-(3′,3′-Dimethylsuccinyl)-17β-[N′-(1-pyridin-2-yl-cyclopropyl)-ureido]-21-oxolup-18-ene] as the compound, how does the IC50 read?
A: Its IC50 is under 0.199 µM.

Q: `Cc1ccc(C(=O)N[C@@]23CC[C@]4(C)C(CCC5[C@@]6(C)CC[C@H](OC(=O)CC(C)(C)C(=O)O)C(C)(C)C6CC[C@]54C)C2=C(C(C)C)C(=O)C3)s1` (stereo partly drawn) [19-77, 3β-O-(3′,3′-Dimethylsuccinyl)-17β-(5-methyl-thiophene-2-amido)-21-oxolup-18-ene] was tested. Which IC50 did it give?
A: Its IC50 is under 0.199 µM.

same assay, conditions: Human immunodeficiency virus 1, MT2 cells, without human serum, average IC50 if tested more than once, read-out: MT2 (HIVIIIB) IC50 range

Q: Which IC50 does the source give for `CC(C)C1=C2[C@H]3CC[C@@H]4[C@@]5(C)CC[C@H](OC(=O)CC(C)(C)C(=O)O)C(C)(C)[C@@H]5CC[C@@]4(C)[C@]3(C)CC[C@@]2(NC(=O)C2CCN(C(=O)OC(C)(C)C)CC2)CC1=O` [19-5, 3β-O-(3′,3′-Dimethylsuccinyl)-17β-(1-tert-butyloxycarbonylpiperidine-4-amido)-21-oxolup-18-ene] here?
A: Its IC50 is under 0.199 µM.

Q: Which IC50 does the source give for `CC(C)C1=C2[C@H]3CC[C@@H]4[C@@]5(C)CC[C@H](OC(=O)CC(C)(C)C(=O)O)C(C)(C)[C@@H]5CC[C@@]4(C)[C@]3(C)CC[C@@]2(NC(=O)N2CCNCC2)CC1=O` [17-15, 3β-O-(3′,3′-Dimethylsuccinyl)-17β-[(piperazine-1-carbonyl)-amino]-21-oxolup-18-ene] here?
A: The IC50 was under 0.199 µM.

same assay, conditions: MT2 cells, with 30% human serum, average IC50 if tested more than once, read-out: MT2 (HIVIIIB) with HS 30% IC50 range

Q: Which IC50 does the source give for `CC(C)C1=C2C3CCC4[C@@]5(C)CC[C@H](OC(=O)CC(C)(C)C(=O)O)C(C)(C)C5CC[C@@]4(C)[C@]3(C)CC[C@@]2(NC(=O)C2CC3CCC(C2)O3)CC1=O` (stereo partly drawn) [19-71, 3β-O-(3′,3′-Dimethylsuccinyl)-17β-(8α-oxa-bicyclo[3.2.1]octane-3-amido)-21-oxolup-18-ene] here?
A: Its IC50 is under 0.199 µM.
